Laboratory results: the supplement of paper PMC10307832

Key:
Assay in all cases: relative viability (nuclei count vs DMSO), 5 days (fraction); higher = more cells survive
Adavosertib + Bortezomib = compound: C=CCn1c(=O)c2cnc(Nc3ccc(N4CCN(C)CC4)cc3)nc2n1-c1cccc(C(C)(C)O)n1 [Adavosertib] + CC(C)C[C@H](NC(=O)[C@H](Cc1ccccc1)NC(=O)c1cnccn1)B(O)O [Bortezomib] (partner 0.002 µM)
Procedure, shortened: (§1)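 Lung cancer cell lines were seeded in 1536-well plates and dosed by pin tool the next day, with either a single drug or a fixed anchor-drug dose combined with five library-drug doses (not always all listed) spaced in √10 steps. Five days later, one step fixed the cells and stained their nuclei (final 0.05% Triton X-100, 1% formaldehyde, 1 ug/ml Hoechst), and nuclei were counted on 4× images. Relative viability is the nuclei count in treated wells divided by the count in vehicle wells, and each value is the median of duplicate plates.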

Adavosertib + Dasatinib = compound: C=CCn1c(=O)c2cnc(Nc3ccc(N4CCN(C)CC4)cc3)nc2n1-c1cccc(C(C)(C)O)n1 [Adavosertib] + Cc1nc(Nc2ncc(C(=O)Nc3c(C)cccc3Cl)s2)cc(N2CCN(CCO)CC2)n1 [Dasatinib] (partner 0.075 µM)
Procedure, shortened: as §1

Nelarabine + Trametinib = compound: COc1nc(N)nc2c1ncn2[C@@H]1O[C@H](CO)[C@@H](O)[C@@H]1O [Nelarabine] + CC(=O)Nc1cccc(-n2c(=O)n(C3CC3)c(=O)c3c(Nc4ccc(I)cc4F)n(C)c(=O)c(C)c32)c1 [Trametinib] (partner 0.02 µM)
Procedure, shortened: as §1

Nelarabine + Foretinib = compound: COc1nc(N)nc2c1ncn2[C@@H]1O[C@H](CO)[C@@H](O)[C@@H]1O [Nelarabine] + COc1cc2c(Oc3ccc(NC(=O)C4(C(=O)Nc5ccc(F)cc5)CC4)cc3F)ccnc2cc1OCCCN1CCOCC1 [Foretinib] (partner 0.25 µM)
Procedure, shortened: as §1

| Cell Line | relative viability (Adavosertib + Bortezomib; first compound 0.01 µM) | relative viability (Adavosertib + Bortezomib; first compound 0.03162 µM) | relative viability (Adavosertib + Bortezomib; first compound 0.1 µM) | relative viability (Adavosertib + Bortezomib; first compound 0.3162 µM) | relative viability (Adavosertib + Dasatinib; first compound 0.01 µM) | relative viability (Adavosertib + Dasatinib; first compound 0.03162 µM) | relative viability (Adavosertib + Dasatinib; first compound 0.1 µM) | relative viability (Adavosertib + Dasatinib; first compound 0.3162 µM) | relative viability (Nelarabine + Trametinib; first compound 0.01 µM) | relative viability (Nelarabine + Trametinib; first compound 0.03162 µM) | relative viability (Nelarabine + Trametinib; first compound 0.1 µM) | relative viability (Nelarabine + Trametinib; first compound 0.3162 µM) | relative viability (Nelarabine + Trametinib; first compound 1 µM) | relative viability (Nelarabine + Foretinib; first compound 0.01 µM) | relative viability (Nelarabine + Foretinib; first compound 0.03162 µM) | relative viability (Nelarabine + Foretinib; first compound 0.1 µM) | relative viability (Nelarabine + Foretinib; first compound 0.3162 µM) | relative viability (Nelarabine + Foretinib; first compound 1 µM) |
| --- | --- | --- | --- | --- | --- | --- | --- | --- | --- | --- | --- | --- | --- | --- | --- | --- | --- | --- |
| LCLC-103H | 1.03 | 1.1 | 1.05 | 1.08 | 0.422 | 0.44 | 0.435 | 0.356 | 0.72 | 0.68 | 0.751 | 0.758 | 0.69 | 0.958 | 0.825 | 0.72 | 0.815 | 0.79 |
| NCI-H596 | 1.27 | 1.01 | 1 | 1.14 | 0.53 | 0.656 | 0.66 | 0.541 | 0.912 | 0.861 | 0.783 | 0.907 | 0.834 | 0.829 | 0.917 | 0.773 | 0.848 | 0.84 |
| NCI-H727 | 0.867 | 0.869 | 0.877 | 0.945 | 0.316 | 0.478 | 0.338 | 0.301 | 0.377 | 0.43 | 0.358 | 0.35 | 0.321 | 0.881 | 0.97 | 0.912 | 0.772 | 0.945 |
| EPLC-272H | 0.959 | 0.805 | 0.866 | 0.732 | 0.312 | 0.339 | 0.363 | 0.205 | 0.293 | 0.307 | 0.317 | 0.274 | 0.293 | 0.81 | 0.503 | 0.655 | 0.66 | 0.584 |
| NCI-H1355 | 1.15 | 1.17 | 1.18 | 1.16 | 0.673 | 0.643 | 0.696 | 0.569 | 0.451 | 0.343 | 0.43 | 0.346 | 0.477 | 1.05 | 0.984 | 0.947 | 1 | 1.03 |
| LOU-NH91 | 0.484 | 0.502 | 0.502 | 0.489 | 0.539 | 0.565 | 0.622 | 0.513 | 0.856 | 0.731 | 0.769 | 0.804 | 0.794 | 0.959 | 0.938 | 0.932 | 0.893 | 0.977 |
| HCC-78 | 0.542 | 0.46 | 0.529 | 0.573 | 0.389 | 0.44 | 0.418 | 0.401 | 1.19 | 0.74 |  | 0.853 | 0.96 | 0.607 | 0.538 |  | 0.527 | 0.617 |
| NCI-H322M |  | 1.17 | 1.2 | 0.869 | 0.238 | 0.225 | 0.247 | 0.255 | 0.547 | 0.505 | 0.383 | 0.402 | 0.511 | 0.972 | 0.948 | 0.816 | 0.939 | 0.976 |
| HCC-15 | 1.01 | 0.953 | 1.07 | 1.26 | 0.577 | 0.569 | 0.574 | 0.643 | 0.431 | 0.427 | 0.307 | 0.42 | 0.386 | 1.16 | 0.996 | 0.983 | 1.12 | 0.992 |
| A-427 | 0.906 | 1.04 | 0.964 | 0.861 | 0.715 | 0.709 | 0.805 | 0.425 | 0.835 | 0.772 | 0.728 | 0.721 | 0.773 | 1.11 | 0.97 | 0.972 | 1.13 | 0.954 |
| NCI-H2228 | 0.875 | 0.941 | 0.818 | 0.358 | 0.536 | 0.492 | 0.475 | 0.265 | 0.575 | 0.469 | 0.29 | 0.55 | 0.668 | 0.977 | 1.02 |  | 0.956 | 0.86 |
| CAL-12T |  | 0.817 | 0.946 | 0.68 | 0.501 | 0.416 | 0.438 | 0.222 | 0.351 | 0.314 | 0.404 | 0.352 | 0.347 | 1.3 | 1.14 | 1.15 | 1.09 | 1.04 |
| NCI-H460 | 1.14 | 0.966 | 1.22 | 0.966 | 0.477 | 0.519 | 0.429 | 0.359 | 0.124 | 0.213 | 0.0809 | 0.259 | 0.164 | 1.49 | 1.23 | 1.13 | 1.23 | 1.06 |
| NCI-H661 | 0.941 | 0.695 | 0.889 | 0.738 | 0.864 | 0.846 | 0.75 | 0.347 | 0.651 | 0.718 | 0.628 | 0.668 | 0.756 | 1.15 | 1.2 | 1.02 | 1.05 | 1.06 |
| HARA | 0.981 | 1.17 | 1.13 | 0.938 | 0.258 | 0.249 | 0.283 | 0.338 | 0.412 | 0.703 | 0.676 | 0.754 | 0.718 | 1 | 1.07 | 0.834 | 1.23 | 1.03 |
| NCI-H1437 | 0.56 | 0.596 | 0.475 | 0.518 | 0.404 | 0.323 | 0.375 | 0.43 | 0.637 | 0.582 | 0.484 | 0.64 | 0.581 | 1.4 | 1.18 | 1.23 | 1.25 | 1.15 |
| 201T | 1.06 | 1.06 | 1.16 | 1.14 | 0.544 | 0.524 | 0.568 | 0.463 | 0.781 | 0.775 | 0.737 | 0.712 | 0.73 | 1.46 |  | 1.04 | 1.03 | 1.05 |
| LC-2-ad | 1.11 | 1.08 | 1.09 | 1.16 | 0.539 | 0.654 | 0.582 | 0.493 | 1.09 | 1.01 | 0.922 | 0.993 | 0.899 | 1 | 1.01 | 0.848 | 0.885 | 0.858 |
